Assay results: patent publication US20250136578A1 (Kolm Therapeutics Inc., priority 2023, published 2025)

Key:
Format in all cases: cell-based
AR / CBP ternary complex = AR / CBP ternary complex (Homo sapiens, UniProt P10275+Q92793); assay: Ternary complex formation assay (sandwich ELISA, AR capture, CBP antibody detection) in VCaP cell lysates; conditions: treated 1.5 hours, rabbit CBP or p300 antibody detection, average, read-out: Average Ternary Complex
How it was run: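 Sandwich ELISA: plates were coated with anti-AR antibody (AR441) and given lysates of VCaP cells treated 1.5 h with bifunctional compound in charcoal-stripped serum. Co-captured CBP or p300 was probed with rabbit mAbs and HRP secondary. Chemifluorescent signal (ex 570/em 585) was read at 0, 5 and 15 min.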

HEK-293 cells = assay: HEK-293 growth inhibition assay (CTG); conditions: Homo sapiens, HEK293, 72 h, 3 days
Description: HEK-293 cells (ATCC Cat #CRL-1573) are plated at 3×10^3 cells per well of a white plastic 96-well cluster plate (Thermo Scientific Nunc Cat #165306) in 200 uL DMEM (ATCC Cat #30-2002) media with 10% FBS (Gibco Cat #26140-079). Cluster plates are returned to the incubator (37*C/5% CO2) for 24 hours prior to treatment. Compounds (200X) were added to each well in a volume of 1 uL, with serial dilutions (1:5) from 2 mM to 200 pM (final concentrations in well are 10 uM to 1 pM). Cluster plates are returned to the incubator for 3 days.
After the 3-day treatment period, 100 uL media was removed from each well by aspiration and 100 uL room temperature CTG reagent (Promega Cat #G7573) is added back to each well. The cluster plates are placed on a shaker and incubated at room temperature for 20 minutes. Following this shaking/incubation, cluster plates are read on a luminometer (BMG ClarioStar). IC50 values are obtained by graphing the RLU data vs. compound concentration with nonlinear regression 4-parameter logistic curves (GraphPad Prism).

VCaP cells = assay: VCaP growth inhibition assay (CTG); conditions: Homo sapiens, 216 h, 30 pM R1881, 9 days
How it was run: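 Growth was measured by CTG luminescence after a 9-day exposure of VCaP cells to compound (final 10 fM–100 nM, fivefold steps) in the presence of 30 pM final R1881, in phenol red-free DMEM/5% CSS. IC50 values were derived by nonlinear 4-parameter regression of RLU against concentration.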

Chain of AR / CBP ternary complex (P10275 whole entry): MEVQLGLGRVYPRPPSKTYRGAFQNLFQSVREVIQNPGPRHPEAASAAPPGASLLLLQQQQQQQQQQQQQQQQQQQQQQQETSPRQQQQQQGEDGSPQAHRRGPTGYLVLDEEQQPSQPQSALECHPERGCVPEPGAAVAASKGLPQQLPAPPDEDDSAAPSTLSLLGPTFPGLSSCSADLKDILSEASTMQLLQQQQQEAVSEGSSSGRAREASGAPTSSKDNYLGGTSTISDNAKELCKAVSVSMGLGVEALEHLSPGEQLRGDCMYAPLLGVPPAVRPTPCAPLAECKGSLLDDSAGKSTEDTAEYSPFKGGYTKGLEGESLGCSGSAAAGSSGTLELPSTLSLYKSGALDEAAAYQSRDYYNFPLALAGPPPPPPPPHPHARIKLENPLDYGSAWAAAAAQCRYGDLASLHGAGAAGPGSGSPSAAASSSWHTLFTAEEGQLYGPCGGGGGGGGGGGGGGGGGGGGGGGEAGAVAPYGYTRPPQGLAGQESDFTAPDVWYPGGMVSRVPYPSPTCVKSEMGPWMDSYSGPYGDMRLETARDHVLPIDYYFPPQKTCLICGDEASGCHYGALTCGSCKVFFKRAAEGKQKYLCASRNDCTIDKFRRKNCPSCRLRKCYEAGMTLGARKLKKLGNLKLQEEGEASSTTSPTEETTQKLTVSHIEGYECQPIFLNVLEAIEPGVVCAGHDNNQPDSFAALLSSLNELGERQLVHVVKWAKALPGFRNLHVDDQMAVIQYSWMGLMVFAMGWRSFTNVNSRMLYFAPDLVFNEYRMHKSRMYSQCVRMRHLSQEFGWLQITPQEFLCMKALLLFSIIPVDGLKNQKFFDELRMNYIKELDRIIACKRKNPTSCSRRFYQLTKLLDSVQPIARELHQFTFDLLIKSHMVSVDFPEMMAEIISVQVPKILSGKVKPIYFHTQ
Chain of AR / CBP ternary complex (Q92793 2-2442): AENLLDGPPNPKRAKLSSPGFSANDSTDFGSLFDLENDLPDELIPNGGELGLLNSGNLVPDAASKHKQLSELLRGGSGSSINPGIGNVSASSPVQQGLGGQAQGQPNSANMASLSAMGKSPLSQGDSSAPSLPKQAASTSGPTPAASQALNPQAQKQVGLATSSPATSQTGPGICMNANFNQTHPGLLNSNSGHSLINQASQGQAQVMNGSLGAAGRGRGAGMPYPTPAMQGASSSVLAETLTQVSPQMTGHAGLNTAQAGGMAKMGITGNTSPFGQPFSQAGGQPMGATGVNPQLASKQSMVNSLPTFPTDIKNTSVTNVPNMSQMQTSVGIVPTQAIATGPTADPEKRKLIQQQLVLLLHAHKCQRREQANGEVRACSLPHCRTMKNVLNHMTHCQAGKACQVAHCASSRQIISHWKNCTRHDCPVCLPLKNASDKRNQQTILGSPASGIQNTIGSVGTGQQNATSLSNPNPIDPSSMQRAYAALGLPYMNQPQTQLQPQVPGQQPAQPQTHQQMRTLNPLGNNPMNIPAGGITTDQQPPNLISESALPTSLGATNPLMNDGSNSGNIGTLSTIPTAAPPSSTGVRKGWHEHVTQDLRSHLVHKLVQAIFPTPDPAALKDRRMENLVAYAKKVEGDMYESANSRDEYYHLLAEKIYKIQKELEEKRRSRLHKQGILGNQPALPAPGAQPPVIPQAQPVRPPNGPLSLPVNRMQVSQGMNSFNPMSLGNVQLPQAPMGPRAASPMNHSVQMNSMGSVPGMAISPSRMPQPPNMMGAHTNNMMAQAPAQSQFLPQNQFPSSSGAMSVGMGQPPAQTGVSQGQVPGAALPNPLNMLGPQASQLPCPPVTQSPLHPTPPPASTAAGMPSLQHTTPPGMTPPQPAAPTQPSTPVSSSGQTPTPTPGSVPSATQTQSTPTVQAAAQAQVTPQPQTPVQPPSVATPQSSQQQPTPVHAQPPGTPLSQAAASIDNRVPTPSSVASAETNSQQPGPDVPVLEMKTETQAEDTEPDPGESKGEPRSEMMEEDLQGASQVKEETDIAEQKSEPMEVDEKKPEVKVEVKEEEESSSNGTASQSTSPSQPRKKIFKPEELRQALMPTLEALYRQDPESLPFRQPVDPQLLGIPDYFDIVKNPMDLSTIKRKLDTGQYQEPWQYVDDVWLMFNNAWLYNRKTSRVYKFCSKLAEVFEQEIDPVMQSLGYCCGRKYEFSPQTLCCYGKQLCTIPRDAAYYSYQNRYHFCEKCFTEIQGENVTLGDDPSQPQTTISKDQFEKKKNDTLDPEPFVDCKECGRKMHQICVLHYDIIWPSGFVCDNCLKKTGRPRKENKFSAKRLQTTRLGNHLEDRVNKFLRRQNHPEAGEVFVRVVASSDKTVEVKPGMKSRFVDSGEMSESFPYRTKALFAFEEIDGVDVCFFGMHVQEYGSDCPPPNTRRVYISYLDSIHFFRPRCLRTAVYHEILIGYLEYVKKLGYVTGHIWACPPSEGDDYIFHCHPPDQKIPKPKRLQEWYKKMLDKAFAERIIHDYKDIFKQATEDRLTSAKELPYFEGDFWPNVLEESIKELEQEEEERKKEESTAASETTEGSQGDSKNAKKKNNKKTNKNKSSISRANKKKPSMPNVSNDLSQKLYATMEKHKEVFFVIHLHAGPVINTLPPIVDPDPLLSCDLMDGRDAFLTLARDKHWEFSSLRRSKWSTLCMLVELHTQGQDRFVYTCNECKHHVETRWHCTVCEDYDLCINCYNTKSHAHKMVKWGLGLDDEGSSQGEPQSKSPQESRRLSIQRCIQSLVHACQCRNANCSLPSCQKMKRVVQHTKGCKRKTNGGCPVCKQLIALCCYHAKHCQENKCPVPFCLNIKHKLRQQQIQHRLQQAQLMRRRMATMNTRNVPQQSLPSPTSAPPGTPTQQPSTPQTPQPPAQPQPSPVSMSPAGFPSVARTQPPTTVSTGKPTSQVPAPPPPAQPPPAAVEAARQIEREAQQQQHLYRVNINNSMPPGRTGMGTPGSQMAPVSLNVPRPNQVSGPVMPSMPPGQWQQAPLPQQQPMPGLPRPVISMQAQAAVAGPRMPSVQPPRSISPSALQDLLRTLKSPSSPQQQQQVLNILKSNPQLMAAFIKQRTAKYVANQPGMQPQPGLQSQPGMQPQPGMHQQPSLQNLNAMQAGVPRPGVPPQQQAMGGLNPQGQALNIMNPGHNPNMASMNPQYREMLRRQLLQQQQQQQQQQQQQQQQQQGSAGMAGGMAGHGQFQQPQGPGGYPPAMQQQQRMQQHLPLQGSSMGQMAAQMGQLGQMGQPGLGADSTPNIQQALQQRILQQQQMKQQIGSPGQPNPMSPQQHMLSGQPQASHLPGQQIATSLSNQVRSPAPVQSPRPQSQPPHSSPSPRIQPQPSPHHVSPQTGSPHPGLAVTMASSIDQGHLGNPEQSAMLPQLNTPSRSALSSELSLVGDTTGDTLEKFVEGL

SMILES	EC50 (AR / CBP ternary complex)	IC50 (VCaP cells)	IC50 (HEK-293 cells)
CC(=O)N1CCc2c(c(N3CCCc4cc(-c5cnn(C)c5)c(C)cc43)nn2C2CCN(CC3CCN(c4ccc(C(=O)N[C@H]5CC[C@H](Oc6ccc(C#N)c(Cl)c6C)CC5)nn4)CC3(C)C)CC2)C1 (some centres unmarked) [Compound 291, 6-[4-[[4-[5-acetyl-3-[7-methyl-6-(1-methylpyrazol-4-yl)-3,4-dihydro-2H-quinolin-1-yl]-6,7-dihydro-4H-pyrazolo[4,3-c]pyridin-1-yl]-1-piperidyl]methyl]-3,3-dimethyl-1-piperidyl]-N-[4-(3-chloro-4-cyano-2-methyl-phenoxy)cyclohexyl]pyridazine-3-carboxamide]	< 1 nM	≤ 0.1 nM	–
CC(=O)N1CCc2c(c(N3CCCc4cc(-c5cnn(C)c5)c(C)cc43)nn2C2CCN(CC3CCN(c4ccc(C(=O)N[C@H]5CC[C@H](Oc6ccc(C#N)c(C)c6C)CC5)nn4)CC3(C)C)CC2)C1 (some centres unmarked) [Compound 292, 6-[4-[[4-[5-acetyl-3-[7-methyl-6-(1-methylpyrazol-4-yl)-3,4-dihydro-2H-quinolin-1-yl]-6,7-dihydro-4H-pyrazolo[4,3-c]pyridin-1-yl]-1-piperidyl]methyl]-3,3-dimethyl-1-piperidyl]-N-[4-(4-cyano-2,3-dimethyl-phenoxy)cyclohexyl]pyridazine-3-carboxamide]	< 1 nM	≤ 0.1 nM	–
CC(=O)N1CCc2c(c(N3CCCc4cc(-c5cnn(C)c5)c(C)cc43)nn2C2CCN(CC3CCN(c4ccc(C(=O)N[C@H]5CC[C@H](Oc6ccc(C#N)c(C)c6)CC5)nn4)CC3(C)C)CC2)C1 (some centres unmarked) [Compound 293, 6-[4-[[4-[5-acetyl-3-[7-methyl-6-(1-methylpyrazol-4-yl)-3,4-dihydro-2H-quinolin-1-yl]-6,7-dihydro-4H-pyrazolo[4,3-c]pyridin-1-yl]-1-piperidyl]methyl]-3,3-dimethyl-1-piperidyl]-N-[4-(4-cyano-3-methyl-phenoxy)cyclohexyl]pyridazine-3-carboxamide]	< 1 nM	≤ 0.1 nM	–
CC(=O)N1CCc2c(c(N3CCCc4cc(-c5cnn(C)c5)c(C)cc43)nn2C2CCN(C3CCC4(CC3)CN(c3ccc(C(=O)N[C@H]5CC[C@H](Oc6ccc(C#N)c(C)c6)CC5)nn3)C4)CC2)C1 [Compound 298, 6-[7-[4-[5-acetyl-3-[7-methyl-6-(1-methylpyrazol-4-yl)-3,4-dihydro-2H-quinolin-1-yl]-6,7-dihydro-4H-pyrazolo[4,3-c]pyridin-1-yl]-1-piperidyl]-2-azaspiro[3.5]nonan-2-yl]-N-[4-(4-cyano-3-methyl-phenoxy)cyclohexyl] pyridazine-3-carboxamide]	< 1 nM	0.1 to 1 nM	–
CC(=O)N1CCc2c(c(N3CCCc4cc(-c5cnn(C)c5)c(C)cc43)nn2C2CCN(C3CCC4(CC3)CN(c3ccc(C(=O)N[C@H]5CC[C@H](Oc6ccc(C#N)c(C)c6C)CC5)nn3)C4)CC2)C1 [Compound 299]	< 1 nM	≤ 0.1 nM	–
CC(=O)N1CCc2c(c(N3CCCc4cc(-c5cnn(C)c5)c(C)cc43)nn2C2CCN(C3CCC4(CC3)CN(c3ccc(C(=O)N[C@H]5CC[C@H](Oc6ccc(C#N)c(Cl)c6C)CC5)nn3)C4)CC2)C1 [Compound 300, 6-[7-[4-[5-acetyl-3-[7-methyl-6-(1-methylpyrazol-4-yl)-3,4-dihydro-2H-quinolin-1-yl]-6,7-dihydro-4H-pyrazolo[4,3-c]pyridin-1-yl]-1-piperidyl]-2-azaspiro[3.5]nonan-2-yl]-N-[4-(3-chloro-4-cyano-2-methyl-phenoxy)cyclohexyl]pyridazine-3-carboxamide]	< 1 nM	≤ 0.1 nM	–

Further lines, with some results ahead:

EC50 (AR / CBP ternary complex)	IC50 (VCaP cells)	SMILES	IC50 (HEK-293 cells)
< 1 nM	≤ 0.1 nM	CC(=O)N1CCc2c(c(N3CCCc4cc(-c5cnn(C)c5)c(C(F)F)cc43)nn2C2CCN(C(=O)COC3CCN(c4ccc(C(=O)N[C@H]5CC[C@H](Oc6ccc(C#N)c(Cl)c6)CC5)nn4)CC3)CC2)C1 [Compound 1, 6-[4-[2-[4-[5-acetyl-3-[7-(difluoromethyl)-6-(1-methylpyrazol-4-yl)-3,4-dihydro-2H-quinolin-1-yl]-6,7-dihydro-4H-pyrazolo[4,3-c]pyridin-1-yl]-1-piperidyl]-2-oxo-ethoxy]-1-piperidyl]-N-[4-(3-chloro-4-cyano-phenoxy)cyclohexyl]pyridazine-3-carboxamide]	> 10000 nM
< 1 nM	≤ 0.1 nM	CC(=O)N1CCc2c(c(N3CCCc4cc(C#N)c(C(F)F)cc43)nn2C2CCN(C[C@H]3[C@H](C)CN(c4ccc(C(=O)N[C@H]5CC[C@H](Oc6ccc(C#N)c(Cl)c6)CC5)nn4)C[C@@H]3C)CC2)C1 [Compound 286, 6-[4-[[4-[5-acetyl-3-[6-cyano-7-(difluoromethyl)-3,4-dihydro-2H-quinolin-1-yl]-6,7-dihydro-4H-pyrazolo[4,3-c]pyridin-1-yl]-1-piperidyl]methyl]-3,5-dimethyl-1-piperidyl]-N-[4-(3-chloro-4-cyano-phenoxy)cyclohexyl]pyridazine-3-carboxamide]	–
< 1 nM	≤ 0.1 nM	CC(=O)N1CCc2c(c(N3CCCc4cc(-c5cnn(C)c5)c(C(F)F)cc43)nn2C2CCN(C[C@H]3[C@H](C)CN(c4ccc(C(=O)N[C@H]5CC[C@H](Oc6ccc(C#N)c(Cl)c6C)CC5)nn4)C[C@@H]3C)CC2)C1 [Compound 287, 6-[4-[[4-[5-acetyl-3-[7-(difluoromethyl)-6-(1-methylpyrazol-4-yl)-3,4-dihydro-2H-quinolin-1-yl]-6,7-dihydro-4H-pyrazolo[4,3-c]pyridin-1-yl]-1-piperidyl]methyl]-3,5-dimethyl-1-piperidyl]-N-[4-(3-chloro-4-cyano-2-methyl-phenoxy)cyclohexyl]pyridazine-3-carboxamide]	–
< 1 nM	≤ 0.1 nM	CC(=O)N1CCc2c(c(N3CCCc4cc(-c5cnn(C)c5)c(C(F)F)cc43)nn2C2CCN(C[C@H]3[C@H](C)CN(c4ccc(C(=O)N[C@H]5CC[C@H](Oc6ccc(C#N)c(C)c6C)CC5)nn4)C[C@@H]3C)CC2)C1 [Compound 288]	–
< 1 nM	≤ 0.1 nM	CC(=O)N1CCc2c(c(N3CCCc4cc(-c5cnn(C)c5)c(C(F)F)cc43)nn2C2CCN(C[C@H]3[C@H](C)CN(c4ccc(C(=O)N[C@H]5CC[C@H](Oc6ccc(C#N)c(C)c6)CC5)nn4)C[C@@H]3C)CC2)C1 [Compound 289, 6-[4-[[4-[5-acetyl-3-[7-(difluoromethyl)-6-(1-methylpyrazol-4-yl)-3,4-dihydro-2H-quinolin-1-yl]-6,7-dihydro-4H-pyrazolo[4,3-c]pyridin-1-yl]-1-piperidyl]methyl]-3,5-dimethyl-1-piperidyl]-N-[4-(4-cyano-3-methyl-phenoxy)cyclohexyl]pyridazine-3-carboxamide]	–
